Earlier results as cited in US20080038403A1, “WEIGHT MANAGEMENT SYSTEM FOR OBESE ANIMALS” (MARS INCORPORATED, priority 2002, published 2008).

What was measured:
[1] = dietary consumption
[2] = dietary consumption; remark: listed apart in the source

1,3-diacylglycerol
body weight [1]: decreases | regional fat deposition [1]: decreases | serum cholesterol levels [2]: lowers | serum triglyceride levels [2]: lowers
